For orientation: IC50 means the concentration that inhibits the measured activity by half. Usually half-life stands for the time in which the quantity being followed falls by half. One may read the bioavailability as dose-corrected exposure relative to a reference, in per cent. In general, AUC(0-inf) refers to total exposure, with the tail of the curve extrapolated. High values mean high exposure, low ones low exposure.

Results on 25 compounds are retold here after ChEMBL document CHEMBL1157345, “Evaluation of indazole-based compounds as a new class of potent KDR/VEGFR-2 inhibitors” (Bioorg Med Chem Lett, 2008).

Molecules are shown by their SMILES.

Data set [1] concerns the target Vascular endothelial growth factor receptor 2 (Homo sapiens, UniProt P35968). Put plainly: Inhibition of recombinant KDR by HTRF assay.
Data set [2] has as its system HUVEC. Put plainly: Inhibition of bFGF-stimulated HUVEC cell proliferation treated before 2 hrs of bFGF challenge assessed after 72 hrs. The class given is functional, cell-based. The conditions noted are these: Homo sapiens.
Data set [3] deals with HUVEC. Put plainly: Inhibition of VEGF-stimulated HUVEC cell proliferation treated before 2 hrs of VEGF challenge assessed after 72 hrs. The class given is functional, cell-based. The conditions noted are these: Homo sapiens.
Data set [4] is described as follows: Clearance in Sprague-Dawley rat at 1 mg/kg, iv or 10 mg/kg, po. Type of data set: ADME, organism-based. Particulars: in vivo.
The nature of data set [5]: Volume of distribution at steady state in Sprague-Dawley rat at 1 mg/kg, iv or 10 mg/kg, po. The class given is ADME, organism-based. The conditions noted are these: in vivo, read-out: Vdss.
Data set [6] can be described thus: Half life in Sprague-Dawley rat at 1 mg/kg, iv or 10 mg/kg, po. Type of data set: ADME, organism-based. The conditions noted are these: in vivo.
Data set [7] can be described thus: Bioavailability in Sprague-Dawley rat at 1 mg/kg, iv or 10 mg/kg, po. Type of data set: ADME, organism-based. The conditions noted are these: in vivo.
A short description of data set [8]: AUC (0 to infinity) in Sprague-Dawley rat at 1 mg/kg, iv or 10 mg/kg, po. The class given is ADME, organism-based. The conditions noted are these: plasma.
A further data set concerns the target Aurora kinase B (Homo sapiens, UniProt Q96GD4). Put plainly: Inhibition of aurora 1 kinase.
A further data set has as its target Angiopoietin-1 receptor (Homo sapiens, UniProt Q02763). Put plainly: Inhibition of Tie 2.
The target in a further data set is T1, Aurora kinase A (Homo sapiens, UniProt O14965).
T1 sequence (O14965 whole entry): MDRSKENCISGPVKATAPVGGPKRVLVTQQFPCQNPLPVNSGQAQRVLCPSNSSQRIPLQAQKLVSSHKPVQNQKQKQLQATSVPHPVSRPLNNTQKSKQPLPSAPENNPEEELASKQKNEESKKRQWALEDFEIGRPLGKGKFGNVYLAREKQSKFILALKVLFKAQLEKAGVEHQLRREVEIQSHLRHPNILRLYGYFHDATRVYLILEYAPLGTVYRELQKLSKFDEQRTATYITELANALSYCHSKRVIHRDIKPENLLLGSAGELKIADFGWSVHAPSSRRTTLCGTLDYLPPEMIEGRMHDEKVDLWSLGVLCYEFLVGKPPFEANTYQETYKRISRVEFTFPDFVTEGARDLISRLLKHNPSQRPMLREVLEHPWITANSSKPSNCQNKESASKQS
Put plainly: Inhibition of aurora 2 kinase.

Data set [9] concerns the target Mitogen-activated protein kinase 14 (Homo sapiens, UniProt Q16539). Put plainly: Inhibition of p38alpha.
The target in data set [10] is Phosphatidylinositol 4,5-bisphosphate 3-kinase catalytic subunit alpha isoform (Homo sapiens, UniProt P42336). Put plainly: Inhibition of PI3K.
Chain of Phosphatidylinositol 4,5-bisphosphate 3-kinase catalytic subunit alpha isoform (P42336 whole entry, canonical isoform): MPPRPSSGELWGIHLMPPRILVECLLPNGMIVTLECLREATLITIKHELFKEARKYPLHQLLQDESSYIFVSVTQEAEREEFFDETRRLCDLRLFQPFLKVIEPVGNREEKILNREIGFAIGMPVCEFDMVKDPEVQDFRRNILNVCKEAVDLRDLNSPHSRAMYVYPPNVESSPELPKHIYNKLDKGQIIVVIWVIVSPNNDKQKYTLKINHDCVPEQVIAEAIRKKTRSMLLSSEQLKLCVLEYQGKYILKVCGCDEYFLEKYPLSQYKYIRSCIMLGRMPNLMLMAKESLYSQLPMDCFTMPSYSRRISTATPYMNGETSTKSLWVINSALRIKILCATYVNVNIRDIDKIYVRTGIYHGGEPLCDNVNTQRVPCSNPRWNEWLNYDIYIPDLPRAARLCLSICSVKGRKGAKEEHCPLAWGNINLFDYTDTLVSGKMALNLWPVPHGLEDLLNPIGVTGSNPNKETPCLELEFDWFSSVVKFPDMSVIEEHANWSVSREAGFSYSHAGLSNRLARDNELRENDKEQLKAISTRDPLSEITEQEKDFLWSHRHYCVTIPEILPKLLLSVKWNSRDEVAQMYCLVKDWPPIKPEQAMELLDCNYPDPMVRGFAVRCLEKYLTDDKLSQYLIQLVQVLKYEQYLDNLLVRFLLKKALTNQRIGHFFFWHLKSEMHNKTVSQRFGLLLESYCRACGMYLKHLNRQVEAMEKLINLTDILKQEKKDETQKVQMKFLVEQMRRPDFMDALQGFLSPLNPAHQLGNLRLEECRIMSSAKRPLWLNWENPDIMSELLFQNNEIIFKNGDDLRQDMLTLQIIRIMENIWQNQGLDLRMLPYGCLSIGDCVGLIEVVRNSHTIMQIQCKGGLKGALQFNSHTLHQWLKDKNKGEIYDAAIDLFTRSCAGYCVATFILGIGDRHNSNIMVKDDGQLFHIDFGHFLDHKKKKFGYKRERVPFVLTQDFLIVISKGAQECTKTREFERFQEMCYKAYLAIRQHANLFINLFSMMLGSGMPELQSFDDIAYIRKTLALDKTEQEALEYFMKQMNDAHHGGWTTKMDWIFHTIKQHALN
Data set [11] deals with Hepatocyte growth factor receptor (Homo sapiens, UniProt P08581). Put plainly: Inhibition of cMET.
Chain of Hepatocyte growth factor receptor (P08581 whole entry): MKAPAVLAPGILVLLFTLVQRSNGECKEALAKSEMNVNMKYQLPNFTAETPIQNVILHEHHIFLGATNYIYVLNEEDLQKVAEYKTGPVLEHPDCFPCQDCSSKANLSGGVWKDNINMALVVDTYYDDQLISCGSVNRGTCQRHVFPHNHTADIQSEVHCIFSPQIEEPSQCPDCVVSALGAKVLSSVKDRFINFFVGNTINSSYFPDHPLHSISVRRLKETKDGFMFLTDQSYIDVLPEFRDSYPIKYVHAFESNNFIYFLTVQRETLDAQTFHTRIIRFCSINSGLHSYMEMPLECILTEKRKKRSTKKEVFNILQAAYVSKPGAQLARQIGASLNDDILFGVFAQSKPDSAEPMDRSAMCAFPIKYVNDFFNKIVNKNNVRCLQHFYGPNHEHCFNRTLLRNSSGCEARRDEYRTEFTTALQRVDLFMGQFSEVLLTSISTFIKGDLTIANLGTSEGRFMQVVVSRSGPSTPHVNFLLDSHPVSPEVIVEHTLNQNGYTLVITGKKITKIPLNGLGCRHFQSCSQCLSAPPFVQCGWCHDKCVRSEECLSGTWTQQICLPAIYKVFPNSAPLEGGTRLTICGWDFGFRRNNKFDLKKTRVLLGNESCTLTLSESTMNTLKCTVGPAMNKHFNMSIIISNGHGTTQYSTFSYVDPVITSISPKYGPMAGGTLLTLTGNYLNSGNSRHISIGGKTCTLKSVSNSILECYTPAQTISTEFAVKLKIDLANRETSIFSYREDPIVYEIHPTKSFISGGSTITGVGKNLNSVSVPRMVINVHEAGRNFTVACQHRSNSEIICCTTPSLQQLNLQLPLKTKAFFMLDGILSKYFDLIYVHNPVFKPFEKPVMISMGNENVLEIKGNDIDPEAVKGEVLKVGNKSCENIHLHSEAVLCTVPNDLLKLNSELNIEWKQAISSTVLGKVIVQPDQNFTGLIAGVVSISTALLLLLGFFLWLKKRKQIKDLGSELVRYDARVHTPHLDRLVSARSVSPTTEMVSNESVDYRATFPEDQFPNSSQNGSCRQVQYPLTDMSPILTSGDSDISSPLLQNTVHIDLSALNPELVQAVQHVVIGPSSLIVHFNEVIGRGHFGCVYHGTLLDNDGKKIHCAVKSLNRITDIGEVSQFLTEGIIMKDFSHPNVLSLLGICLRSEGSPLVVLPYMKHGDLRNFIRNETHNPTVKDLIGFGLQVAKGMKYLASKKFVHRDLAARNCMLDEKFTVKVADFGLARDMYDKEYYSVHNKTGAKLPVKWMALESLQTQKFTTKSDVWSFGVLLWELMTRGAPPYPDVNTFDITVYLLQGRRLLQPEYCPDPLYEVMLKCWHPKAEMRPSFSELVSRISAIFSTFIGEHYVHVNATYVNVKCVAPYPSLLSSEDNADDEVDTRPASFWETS
Another data set deals with HEK293. Put plainly: Inhibition of vascular permeability in mouse VEGF expressing HEK293 cells xenografted in po dosed athymic nude mouse. The class given is functional, organism-based. Particulars: Homo sapiens.
In data set [12] the test system is Mus musculus. Put plainly: Plasma concentration in mouse VEGF expressing HEK293 cells xenografted in athymic nude mouse at 10 mg/kg, po. Type of data set: ADME, organism-based. On the set-up: dose 10 mg/kg, route oral. Particulars: in vivo.
Data set [13] relates to Mus musculus. Put plainly: Plasma concentration in mouse VEGF expressing HEK293 cells xenografted in athymic nude mouse at 30 mg/kg, po. Type of data set: ADME, organism-based. More on the design: dose 30 mg/kg, route oral. The conditions noted are these: in vivo.

Chain of Vascular endothelial growth factor receptor 2 (P35968 whole entry): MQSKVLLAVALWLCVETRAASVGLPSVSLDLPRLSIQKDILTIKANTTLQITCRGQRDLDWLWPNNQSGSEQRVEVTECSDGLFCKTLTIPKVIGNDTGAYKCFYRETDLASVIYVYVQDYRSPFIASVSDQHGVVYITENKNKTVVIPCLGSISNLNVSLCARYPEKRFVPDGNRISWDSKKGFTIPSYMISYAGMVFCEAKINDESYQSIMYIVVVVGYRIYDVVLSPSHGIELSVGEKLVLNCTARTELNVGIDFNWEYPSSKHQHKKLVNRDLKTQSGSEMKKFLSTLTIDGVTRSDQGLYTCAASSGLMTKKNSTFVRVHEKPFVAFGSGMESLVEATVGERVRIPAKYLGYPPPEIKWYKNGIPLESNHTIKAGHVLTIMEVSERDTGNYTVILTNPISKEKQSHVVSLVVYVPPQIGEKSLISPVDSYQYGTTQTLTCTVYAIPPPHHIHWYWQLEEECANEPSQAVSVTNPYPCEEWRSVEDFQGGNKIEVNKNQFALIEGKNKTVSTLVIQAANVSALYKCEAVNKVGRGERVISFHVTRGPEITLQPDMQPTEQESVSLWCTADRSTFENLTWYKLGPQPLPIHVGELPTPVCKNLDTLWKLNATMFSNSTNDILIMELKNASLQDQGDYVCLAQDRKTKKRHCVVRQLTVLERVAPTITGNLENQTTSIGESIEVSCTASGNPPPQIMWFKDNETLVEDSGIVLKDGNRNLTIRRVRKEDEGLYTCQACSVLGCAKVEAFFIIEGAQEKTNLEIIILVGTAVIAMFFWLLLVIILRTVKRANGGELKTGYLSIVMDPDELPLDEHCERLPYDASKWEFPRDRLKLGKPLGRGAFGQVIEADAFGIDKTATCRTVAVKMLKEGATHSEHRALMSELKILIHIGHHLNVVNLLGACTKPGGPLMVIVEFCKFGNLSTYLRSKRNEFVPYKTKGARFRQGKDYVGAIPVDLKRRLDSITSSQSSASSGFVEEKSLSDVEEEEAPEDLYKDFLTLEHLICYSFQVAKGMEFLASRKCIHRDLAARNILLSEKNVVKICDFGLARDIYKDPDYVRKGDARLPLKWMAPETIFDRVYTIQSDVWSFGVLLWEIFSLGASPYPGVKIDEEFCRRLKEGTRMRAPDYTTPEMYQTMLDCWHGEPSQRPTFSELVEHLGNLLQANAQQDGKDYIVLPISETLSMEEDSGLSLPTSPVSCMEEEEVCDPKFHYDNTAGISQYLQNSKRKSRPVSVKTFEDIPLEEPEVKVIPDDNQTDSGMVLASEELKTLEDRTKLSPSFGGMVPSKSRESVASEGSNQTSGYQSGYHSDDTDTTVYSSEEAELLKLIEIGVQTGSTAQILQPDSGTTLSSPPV
Chain of Aurora kinase B (Q96GD4 whole entry): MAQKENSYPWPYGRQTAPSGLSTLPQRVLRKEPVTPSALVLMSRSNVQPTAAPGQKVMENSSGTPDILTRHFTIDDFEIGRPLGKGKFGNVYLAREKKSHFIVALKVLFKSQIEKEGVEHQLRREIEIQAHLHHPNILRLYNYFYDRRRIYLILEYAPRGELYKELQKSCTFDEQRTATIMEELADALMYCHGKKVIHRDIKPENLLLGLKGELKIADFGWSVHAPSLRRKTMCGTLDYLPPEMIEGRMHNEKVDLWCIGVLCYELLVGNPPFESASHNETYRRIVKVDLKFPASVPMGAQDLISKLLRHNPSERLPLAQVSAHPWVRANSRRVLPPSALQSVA
Chain of Mitogen-activated protein kinase 14 (Q16539 whole entry, canonical isoform): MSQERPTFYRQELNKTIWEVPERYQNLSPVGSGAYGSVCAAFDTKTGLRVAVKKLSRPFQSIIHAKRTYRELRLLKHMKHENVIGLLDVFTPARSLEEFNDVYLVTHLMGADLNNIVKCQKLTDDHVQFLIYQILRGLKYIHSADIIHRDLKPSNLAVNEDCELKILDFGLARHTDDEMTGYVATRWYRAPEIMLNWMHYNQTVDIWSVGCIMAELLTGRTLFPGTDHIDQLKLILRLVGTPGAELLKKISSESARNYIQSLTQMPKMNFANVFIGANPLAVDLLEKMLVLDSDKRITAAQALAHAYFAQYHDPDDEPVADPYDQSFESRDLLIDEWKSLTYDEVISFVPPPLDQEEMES

Regarding `COc1cccc(Nc2nn(C)c3cc(Oc4ccnc5cc(OC)c(OC)cc45)ccc23)c1`, the results for the IC50 (in data set [1]; in the data set with HUVEC [2]) were 0.23 µM and more than 1 µM, respectively.
In the case of `COc1cc2nccc(Oc3ccc4c(NC(=O)c5cc(C(F)(F)F)cc(C(F)(F)F)c5)nn(C)c4c3)c2cc1OC`, the IC50 in data set [1] is 0.002 µM; in the data set on HUVEC [3] it was 0.058 µM; with HUVEC [2], more than 1 µM.
With `CCCNc1nn(C)c2cc(Oc3ccnc4cc(OC)c(OC)cc34)ccc12`, the IC50 in data set [1] was 1.11 µM; in the data set with HUVEC [2], more than 1 µM.
Regarding `COc1cc2nccc(Oc3ccc4c(NC(=O)Nc5ccc(C(F)(F)F)cc5Cl)nn(C)c4c3)c2cc1OC`, the IC50 in [1] is 0.008 µM; with HUVEC [3], 1.15 µM; with HUVEC [2], more than 1 µM.
The corresponding values for `COc1ccc(C(=O)Nc2nn(C)c3cc(Oc4ccnc5cc(OC)c(OC)cc45)ccc23)cc1` are 0.003 µM, 0.032 µM and more than 1 µM.
`CCNc1nn(C)c2cc(Oc3ccnc4cc(OC)c(OC)cc34)ccc12`: the values for the IC50 (in data set [1]; with HUVEC [2]) were 0.37 µM and more than 1 µM, respectively.
For `COc1cc2nccc(Oc3ccc4c(NC(=O)Nc5ccc(C)cc5)nn(C)c4c3)c2cc1OC`, the IC50 in [1] was 0.002 µM; in the data set on HUVEC [3] it was 0.003 µM; with HUVEC [2], more than 1 µM.
On the same counts, the results for `COc1cc2nccc(Oc3ccc4c(NC(=O)c5cc(Cl)ccn5)nn(C)c4c3)c2cc1OC` are 0.002 µM, 0.027 µM and more than 1 µM.
As for `COc1cc2nccc(Oc3ccc4c(NC(=O)C5CC5)nn(C)c4c3)c2cc1OC`, the IC50 in data set [1] is 0.344 µM; in the data set with HUVEC [2], more than 1 µM.
As for `COc1cc2nccc(Oc3ccc4c(NC(=O)c5ccc(Cl)cc5)nn(C)c4c3)c2cc1OC`, the IC50 is 0.005 µM in [1], 0.061 µM in the data set with HUVEC [3] and more than 1 µM in the data set with HUVEC [2].
Turning to `COc1cc2nccc(Oc3ccc4c(Nc5ccc(C(F)(F)F)cc5)nn(C)c4c3)c2cc1OC`, the IC50 in data set [1] is 0.07 µM; in the data set with HUVEC [2], more than 1 µM.
On to `COc1cc2nccc(Oc3ccc4c(NC(=O)c5cccc(C(F)(F)F)c5)nn(C)c4c3)c2cc1OC`, for which the IC50 is 0.001 µM in data set [1]; 0.009 µM in the data set with HUVEC [3]; more than 1 µM in the data set on HUVEC [2]; 0.045 µM against Aurora kinase B; 0.121 µM at Angiopoietin-1 receptor; 0.764 µM against Aurora kinase A. Besides, the IC50 in data set [9] amounted to 1.65 µM; in [10], 3.25 µM; in data set [11] it was 3.32 µM. The clearance in [4] is 11.7 mL/min/kg. Moreover, the Vd in [5] turned out to be 1.4 L/kg. In [6], the half-life is 2.2 h. Further, the bioavailability in data set [7] amounted to 46%. Besides, the AUC(0-inf) in [8] amounted to 1530 ng·h/mL. Also, the Activity result in the data set with HEK293 was “Dose-dependent effect”. Moreover, the Cp was 181 ng/mL in the data set with Mus musculus [12] and 347 ng/mL with Mus musculus [13].
As for `COc1ccc(NC(=O)Nc2nn(C)c3cc(Oc4ccnc5cc(OC)c(OC)cc45)ccc23)cc1`, the IC50 in [1] was 0.001 µM; in the data set on HUVEC [3], 0.007 µM; with HUVEC [2] it was more than 1 µM.
With `COc1cc2nccc(Oc3ccc4c(NC(=O)Nc5ccccc5)nn(C)c4c3)c2cc1OC`, the IC50 in data set [1] is 0.002 µM; with HUVEC [3] it was 0.006 µM; with HUVEC [2], more than 1 µM. For the same compound, in data set [4], the clearance was 6.67 mL/min/kg. In data set [5], the Vd was determined as 2 L/kg. The half-life in data set [6] was 4.3 h. For the same compound, the bioavailability in data set [7] came to 2%. In [8], the AUC(0-inf) amounted to 121 ng·h/mL.
Turning to `COc1cc2nccc(Oc3ccc4c(NC(=O)c5ccccc5Cl)nn(C)c4c3)c2cc1OC`, the IC50 in data set [1] is 0.008 µM; in the data set with HUVEC [2] it was more than 1 µM.
For `COc1cc2nccc(Oc3ccc4c(NC(=O)c5ccc(F)c(Cl)c5)nn(C)c4c3)c2cc1OC`, the values for the IC50 (in [1]; with HUVEC [3]; with HUVEC [2]) were 0.003 µM, 0.009 µM and more than 1 µM, respectively. In data set [4], this compound showed a clearance of 21.7 mL/min/kg. The Vd in [5] stood at 2.1 L/kg. The compound also showed a half-life in data set [6] of 1.5 h.
For `COc1cc2nccc(Oc3ccc4c(NC(=O)c5cccc(C)c5)nn(C)c4c3)c2cc1OC`, the IC50 is 0.002 µM in [1], 0.002 µM with HUVEC [3] and more than 1 µM in the data set on HUVEC [2]. Besides, the clearance in data set [4] is 20 mL/min/kg. In addition, in data set [5], the Vd came out at 2.4 L/kg. Moreover, in data set [6], the half-life was 2.7 h. The compound also displayed a bioavailability in data set [7] of 12%. For the same compound, in data set [8], the AUC(0-inf) is 153 ng·h/mL.
In the case of `COc1cc2nccc(Oc3ccc4c(Nc5ccccc5)cccc4c3)c2cc1OC`, the IC50 in data set [1] came to 0.002 µM.
On to `COc1cc2nccc(Oc3ccc4c(Nc5ccccc5)nn(C)c4c3)c2cc1OC`, for which the IC50 in [1] was 0.27 µM; in the data set with HUVEC [2], more than 1 µM.
As for `COc1cc2nccc(Oc3ccc4c(NC(=O)c5ccc(C(F)(F)F)cc5)nn(C)c4c3)c2cc1OC`, the IC50 in [1] is 0.003 µM; with HUVEC [3] it was 0.079 µM; with HUVEC [2], more than 1 µM.
For the compound `COc1ccc(Nc2nn(C)c3cc(Oc4ccnc5cc(OC)c(OC)cc45)ccc23)cc1`, the IC50 in data set [1] is 0.16 µM; in the data set on HUVEC [2] it was more than 1 µM.
On the same counts, the results for `CCCCNc1nn(C)c2cc(Oc3ccnc4cc(OC)c(OC)cc34)ccc12` are 0.8 µM and more than 1 µM.
For the compound `COc1cc2nccc(Oc3ccc4c(NCc5ccccc5)nn(C)c4c3)c2cc1OC`, the concentration for half-maximal inhibition (IC50) was 0.06 µM in data set [1] and more than 1 µM in the data set with HUVEC [2].
For `COc1ccccc1Nc1cccc2cc(Oc3ccnc4cc(OC)c(OC)cc34)ccc12`, in data set [1], the IC50 was determined as 0.001 µM.
For the compound `COc1cc2nccc(Oc3ccc4c(N)nn(C)c4c3)c2cc1OC`, the IC50 in data set [1] was 1.7 µM; in the data set on HUVEC [2], more than 1 µM.
